Experimental data: PMC11997890, “In Vivo and In Vitro Pharmacokinetic Studies of a Dual Topoisomerase I/II Inhibitor” (ACS Pharmacology & Translational Science, 2025)

How the values were obtained:
CYP3A4 = tested on: CYP3A4; parameters: method as in not given; conditions: metabolized by CYP3A4; ref not given; cited from earlier work
OvCar8 spheroids = experiment: 3D spheroid viability (RealTime-Glo); format: cell-based, human; conditions: OvCar8 3D spheroids, 48 h
Protocol: Tumor complexity is represented more realistically in 3D spheroid models than in 2D monolayer models.
OvCar8 cells (8000/well) were seeded into an Ultra-Low-Attachment plate (Corning #4520) and grown for 96 h. Then, spheroids were treated with the drugs for 48 h. Cell cytotoxicity was assessed using the CellTox Green Cytotoxicity Assay (Promega #G8731) 48 h after treatment with NYONE ([…], 485Ex/520Em). Filters: BFEx/GreenEm (530/43 nm); BlueEx (475/28 nm)/GreenEm (530/43 nm). Viability and apoptosis were determined by RealTime-Glo (460Em) (Promega #G9711) and caspase-Glo 3/7 (565Em) (Promega #G8090) according to the manufacturer’s instructions using a microplate reader (Spark, Tecan). Relative caspase activity: caspase activity divided by the viability (normalized to control). For live-dead staining, cells were grown and treated as described above. Then, 80% of the medium was removed and replaced with propidium iodide (PI) (15 μM), calcein-AM (0.2 μM), and Hoechst 33342 (1.8 μM) in medium for 3 h and imaged by NYONE ([…]). Filters: BFEx/GreenEm(530/43 nm); Hoechst 33342: UVEx (377/50 nm)/BlueEm (452/45 nm); calcein-AM: BlueEx (475/28 nm)/GreenEm (530/43 nm); propidium iodide: LimeEx(562/40 nm)/RedEm(628/32 nm). All experiments were performed in biological triplicates. PBS was used as the negative control, and cisplatin and P8-D6 as the positive control.

[1] = cited from earlier work; for CL / Oral bioavailability / Protein binding / V ss / t 1/2: literature values, ref numbers not given
[2] = parameters: method as in not given; conditions: human liver microsomes; ref not given; cited from earlier work

| Structure (SMILES) | CL [1] | Oral bioavailability [1] | Protein binding [1] | V ss [1] | t 1/2 [1] [h] | other results |
| --- | --- | --- | --- | --- | --- | --- |
| O=C(c1cc(Cc2n[nH]c(=O)c3ccccc23)ccc1F)N1CCN(C(=O)C2CC2)CC1 [Olaparib, olaparib] | – | – | – | – | – | rate of three major metabolites (CYP3A4): 8–12% |
| N.N.[Cl][Pt][Cl] [cisplatin, reference compound] | – | – | – | – | – | IC50 (OvCar8 spheroids): 13.5 µM |
| COc1cccc2c1C(=O)c1c(O)c3c(c(O)c1C2=O)C[C@@](O)(C(=O)CO)C[C@@H]3O[C@H]1C[C@H](N)[C@H](O)[C@H](C)O1 [doxorubicin] | 12–34 L/(h m^2) | 5% | 50–85% | 809–1214 L/m^2 | 17.3 to 26 | drug eliminated ([1]; after 7 days, ref not given): 25–45% |
| COc1cc([C@@H]2c3cc4c(cc3[C@@H](O[C@@H]3O[C@@H]5CO[C@@H](C)O[C@H]5[C@H](O)[C@H]3O)[C@H]3COC(=O)[C@H]23)OCO4)cc(OC)c1O [etoposide] | 1–2 L/(h m^2) | 50 (40–75) % | 94–95% | 7.1 (5–17) L/m^2 | 6.4 | – |
| COc1cc2ncnc(Nc3ccc(F)c(Cl)c3)c2cc1OCCCN1CCOCC1 [gefitinib] | – | – | > 97% | – | – | – |
| CCc1c2c(nc3ccc(OC(=O)N4CCC(N5CCCCC5)CC4)cc13)-c1cc3c(c(=O)n1C2)COC(=O)[C@]3(O)CC [irinotecan] | – | – | 65% | – | – | – |
| CC[C@@]1(O)C(=O)OCc2c1cc1n(c2=O)Cc2c-1nc1cc3c(cc1c2CN1CCN(C)CC1)OCCO3 [lurtotecan] | 60 L/(h m^2) | 11.3 ± 5.2% | 90% | 190 L/m^2 | 3.7 | – |
| CC[C@@]1(O)C(=O)OCc2c1cc1n(c2=O)Cc2cc3c(CN(C)C)c(O)ccc3nc2-1 [topotecan] | 14–34 L/(h m^2) | 32–44% | 7–35% | – | 3.1 to 4 | mean ratio of N-demethylated metabolite to topotecan [2]: approximately 3% |
